Assay results reported in patent US20190192517A1, “TREATMENT OF SQUAMOUS CELL CARCINOMAS WITH INHIBITORS OF ERK” (Kura Oncology, Inc., priority 2016, published 2019).

Target: T1, ERK2 enzyme (Homo sapiens, UniProt P28482)
T1 construct: purchased Life Technologies
Assay: Inhibition assay of ERK (Z'-LYTE kinase assay, Ser/Thr 3 peptide, 100 μM ATP)
Type: biochemical
Conditions: in vitro
Method: Example 9: Inhibition Assays of ERK. The inhibition of ERK activity by the compounds disclosed herein was determined using the Z′-LYTE kinase assay kit (Life Technologies) with a Ser/Thr 3 peptide substrate (Life Technologies) according to manufacturer's instructions. […] The IC50 values for the compounds were determined with 3-fold serial dilutions in duplicate. The compounds were first diluted in 1:3 dilutions in 100% DMSO at 100× the desired concentration, and then further diluted (1:25) in 20 mM HEPES buffer (Invitrogen) to make 4× solutions prior to adding to the enzyme solution. The final DMSO concentration in the assay was 1%. Final reaction volume was […] in 384-well plates. Kinase reactions were conducted for 1 hour followed by the assay development reaction (1 hour) in a 384 well plate format (20 μL/well).

T1 sequence (P28482 whole entry): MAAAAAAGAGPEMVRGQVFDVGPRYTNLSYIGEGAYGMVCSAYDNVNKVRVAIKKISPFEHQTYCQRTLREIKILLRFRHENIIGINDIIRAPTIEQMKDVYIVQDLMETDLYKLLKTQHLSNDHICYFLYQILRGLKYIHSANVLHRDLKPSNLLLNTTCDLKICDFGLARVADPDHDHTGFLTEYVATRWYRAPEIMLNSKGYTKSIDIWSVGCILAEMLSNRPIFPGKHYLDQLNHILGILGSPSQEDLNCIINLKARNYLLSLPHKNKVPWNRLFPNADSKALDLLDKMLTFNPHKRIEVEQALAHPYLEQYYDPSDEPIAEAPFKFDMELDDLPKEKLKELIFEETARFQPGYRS

IC50, < 500 nM:
Cc1cc(-c2n[nH]c3cc4c(cc23)CN([C@@H]2CN(C)C[C@H]2c2ccccc2)C(=O)N4)ccn1 (racemic) [Compound 241]
Cc1cc(-c2n[nH]c3cc4c(cc23)CN([C@@H]2CN(C)C[C@H]2c2ccccc2)C(=O)N4)cc(C)n1 (racemic) [Compound 248]
CCN1C[C@@H](N2Cc3cc4c(-c5ccnc(C)c5)n[nH]c4cc3NC2=O)[C@H](c2ccccc2)C1 (racemic) [Compound 278]
Cc1cc(-c2n[nH]c3cc4c(cc23)CN([C@@H]2CN(C(C)C)C[C@H]2c2ccccc2)C(=O)N4)ccn1 (racemic) [Compound 279]
Cc1cc(-c2n[nH]c3cc4c(cc23)CN([C@@H]2CN(C)C[C@H]2c2ccccc2F)C(=O)N4)cc(C)n1 (racemic) [Compound 306]
Cc1cc(-c2n[nH]c3cc4c(cc23)CN([C@@H]2CN(CC(F)F)C[C@H]2c2ccccc2)C(=O)N4)ccn1 (racemic) [Compound 362]
O=C1Nc2cc3[nH]nc(-c4ccncc4)c3cc2CN1Cc1ccccc1 [Compound 1]
O=C1Nc2cc3[nH]nc(-c4ccncc4)c3cc2CN1Cc1cccc(Cl)c1 [Compound 3]
Cc1cc(-c2n[nH]c3cc4c(cc23)CN(Cc2cccc(Cl)c2)C(=O)N4)ccn1 [Compound 4]
Cc1cc(-c2n[nH]c3cc4[nH]c(=O)c(C(C)c5ccccc5)cc4cc23)ccn1 (stereo not drawn) [Compound 22]
Cc1cc(-c2n[nH]c3cc4c(cc23)CN([C@@H]2CCCN(Cc3ccccc3)C2)C(=O)N4)ccn1 [Compound 63]
CCC(c1ccccc1)c1cc2cc3c(-c4ccnc(C)c4)n[nH]c3cc2[nH]c1=O (stereo not drawn) [Compound 64]
COc1ncc(-c2n[nH]c3cc4c(cc23)CN(Cc2cccc(Cl)c2)C(=O)N4)cn1 [Compound 68]
Cc1cc(-c2n[nH]c3cc4[nH]c(=O)c([C@H](C)c5ccccc5)cc4cc23)ccn1 [Compound 84]
COc1ncc(-c2n[nH]c3cc4c(cc23)CN([C@@H]2CCCN(Cc3ccccc3F)C2)C(=O)N4)cn1 [Compound 101]
COc1ncc(-c2n[nH]c3cc4c(cc23)CN([C@@H]2CCCN(Cc3c(F)cccc3F)C2)C(=O)N4)cn1 [Compound 102]
COc1ncc(-c2n[nH]c3cc4c(cc23)CN([C@@H]2CCCN(Cc3c(F)cccc3OC)C2)C(=O)N4)cn1 [Compound 103]
COc1ncc(-c2n[nH]c3cc4c(cc23)CN([C@@H]2CCCN(Cc3ccccc3)C2)C(=O)N4)cn1 [Compound 104]
Cc1cc(-c2n[nH]c3cc4c(cc23)CN([C@@H]2CCCN(Cc3ccc(F)c(Cl)c3)C2)C(=O)N4)ccn1 [Compound 134]
Cc1cc(-c2n[nH]c3cc4c(cc23)CN([C@@H]2CCCN(Cc3c(F)cccc3F)C2)C(=O)N4)ccn1 [Compound 143]
COc1cccc(F)c1CN1CCC[C@@H](N2Cc3cc4c(-c5ccnc(C)c5)n[nH]c4cc3NC2=O)C1 [Compound 144]
Cc1cc(-c2n[nH]c3cc4c(cc23)CN([C@@H]2CCN(Cc3ccccc3)C2)C(=O)N4)ccn1 [Compound 146]
[2H]C([2H])(c1ccccc1)N1CCC[C@@H](N2Cc3cc4c(-c5ccnc(C)c5)n[nH]c4cc3NC2=O)C1 [Compound 148]
Cc1cc(-c2n[nH]c3cc4c(cc23)CN(CCNCc2ccccc2)C(=O)N4)ccn1 [Compound 149]
Cc1cc(-c2n[nH]c3cc4c(cc23)CN([C@@H]2CCCN(Cc3ccc(F)cc3)C2)C(=O)N4)ccn1 [Compound 151]
Cc1cc(-c2n[nH]c3cc4c(cc23)CN([C@@H]2CCN(CCc3ccccc3)C2)C(=O)N4)ccn1 [Compound 153]
Cc1cc(-c2n[nH]c3cc4c(cc23)CN([C@@H]2CCCN(C(C)c3ccccc3)C2)C(=O)N4)ccn1 (stereo partly drawn) [Compound 154]
Cc1cc(-c2n[nH]c3cc4c(cc23)CN([C@@H]2CCCN(Cc3cccc(Cl)c3)C2)C(=O)N4)ccn1 [Compound 156]
Cc1cc(-c2n[nH]c3cc4c(cc23)CN([C@@H]2CCCN(Cc3ccccc3Cl)C2)C(=O)N4)ccn1 [Compound 158]
COc1cccc(F)c1CN1CC[C@@H](N2Cc3cc4c(-c5ccnc(C)c5)n[nH]c4cc3NC2=O)C1 [Compound 162]
[2H]c1c([2H])c([2H])c(C([2H])([2H])N2CCC[C@@H](N3Cc4cc5c(-c6ccnc(C)c6)n[nH]c5cc4NC3=O)C2)c([2H])c1[2H] [Compound 165]
Cc1cc(-c2n[nH]c3cc4c(cc23)CN([C@@H]2CCCN(Cc3cccc(F)c3)C2)C(=O)N4)ccn1 [Compound 184]
Cc1cc(-c2n[nH]c3cc4c(cc23)CN([C@@H]2CCCN(Cc3cccc(F)c3F)C2)C(=O)N4)ccn1 [Compound 185]
Cc1cc(-c2n[nH]c3cc4c(cc23)CN([C@@H]2CCCN(Cc3cc(F)ccc3F)C2)C(=O)N4)ccn1 [Compound 187]
Cc1cc(-c2n[nH]c3cc4c(cc23)CN([C@@H]2CCCN(Cc3ccc(F)c(F)c3)C2)C(=O)N4)ccn1 [Compound 190]
Cc1cc(-c2n[nH]c3cc4c(cc23)CN([C@@H]2CCCN(Cc3ccc(F)cc3F)C2)C(=O)N4)ccn1 [Compound 196]
Cc1cc(-c2n[nH]c3cc4[nH]c(=O)c(C(C)c5ccc(F)cc5)cc4cc23)ccn1 (stereo not drawn) [Compound 197]
Cc1cc(-c2n[nH]c3cc4c(cc23)CN(CC2CCCC2)C(=O)N4)ccn1 [Compound 212]
Cc1cc(-c2n[nH]c3cc4c(cc23)CN(CC2CCCCC2)C(=O)N4)ccn1 [Compound 213]
Cc1cc(-c2n[nH]c3cc4c(cc23)CN([C@@H]2CCN(CC(F)(F)F)C2)C(=O)N4)ccn1 [Compound 214]
Cc1cc(-c2n[nH]c3cc4c(cc23)CN(Cc2cc(F)cc(F)c2)C(=O)N4)cc(C)n1 [Compound 225]
Cc1cc(-c2n[nH]c3cc4c(cc23)CN([C@@H]2CCN(CC(F)(F)F)C2)C(=O)N4)cc(C)n1 [Compound 237]
Cc1cc(-c2n[nH]c3cc4c(cc23)CN(C2CCCC2)C(=O)N4)cc(C)n1 [Compound 239]
Cc1cc(-c2n[nH]c3cc4c(cc23)CN(Cc2cccc(C(F)(F)F)c2)C(=O)N4)ccn1 [Compound 240]
Cc1cc(-c2n[nH]c3cc4c(cc23)CN(C2CCC2)C(=O)N4)ccn1 [Compound 243]
Cc1cc(-c2n[nH]c3cc4c(cc23)CN([C@@H]2CCCN(CC(F)(F)F)C2)C(=O)N4)cc(C)n1 [Compound 244]
Cc1cc(-c2n[nH]c3cc4c(cc23)CN([C@@H]2CCCN(Cc3ccc(C)s3)C2)C(=O)N4)ccn1 [Compound 245]
Cc1cc(-c2n[nH]c3cc4c(cc23)CN([C@@H]2CCCN(Cc3csc(C)c3)C2)C(=O)N4)ccn1 [Compound 251]
Cc1cc(-c2n[nH]c3cc4c(cc23)CN([C@@H]2CCCN(Cc3ccsc3)C2)C(=O)N4)ccn1 [Compound 252]
Cc1cc(-c2n[nH]c3cc4c(cc23)CN([C@@H]2CCCN(Cc3cccs3)C2)C(=O)N4)ccn1 [Compound 254]
Cc1cc(-c2n[nH]c3cc4c(cc23)CN([C@H]2CN(Cc3ccccc3)CC(F)(F)C2)C(=O)N4)ccn1 [Compound 264]
Cc1cc(-c2n[nH]c3cc4c(cc23)CN([C@@H]2CCN(C(C)C(F)(F)F)C2)C(=O)N4)ccn1 (stereo partly drawn) [Compound 267]
C=C(c1ccccc1)c1cc2cc3c(-c4ccnc(C)c4)n[nH]c3cc2[nH]c1=O [Compound 269]
COc1cc(-c2n[nH]c3cc4c(cc23)CN([C@@H]2CCCN(Cc3ccccc3)C2)C(=O)N4)ccn1 [Compound 270]
COc1cc(-c2n[nH]c3cc4c(cc23)CN([C@@H]2CCCN(Cc3ccc(F)cc3F)C2)C(=O)N4)ccn1 [Compound 271]
COc1ccc(-c2n[nH]c3cc4c(cc23)CN([C@@H]2CCCN(Cc3ccccc3)C2)C(=O)N4)cn1 [Compound 272]
COc1ccc(-c2n[nH]c3cc4c(cc23)CN([C@@H]2CCCN(Cc3ccc(F)cc3F)C2)C(=O)N4)cn1 [Compound 273]
Cc1ccc(-c2n[nH]c3cc4c(cc23)CN([C@@H]2CCCN(Cc3ccccc3)C2)C(=O)N4)cn1 [Compound 275]
COc1ncc(-c2n[nH]c3cc4c(cc23)CN([C@@H]2CCCN(Cc3ccc(F)cc3F)C2)C(=O)N4)cn1 [Compound 280]
Cn1ccc(-c2n[nH]c3cc4c(cc23)CN([C@@H]2CCCN(Cc3ccc(F)cc3F)C2)C(=O)N4)c1 [Compound 281]
Cc1ccc(-c2n[nH]c3cc4c(cc23)CN([C@@H]2CCCN(Cc3ccc(F)cc3F)C2)C(=O)N4)cn1 [Compound 284]
Cn1cc(-c2n[nH]c3cc4c(cc23)CN([C@@H]2CCCN(Cc3ccccc3)C2)C(=O)N4)cn1 [Compound 285]
Cc1cc(-c2n[nH]c3cc4[nH]c(=O)c([C@H](C)c5ccc(F)cc5)cc4cc23)ccn1 [Compound 288]
Cc1cc(-c2n[nH]c3cc4c(cc23)CN([C@@H]2CCCN(Cc3sccc3F)C2)C(=O)N4)ccn1 [Compound 291]
Cc1ncc(-c2n[nH]c3cc4c(cc23)CN([C@@H]2CCCN(Cc3ccccc3)C2)C(=O)N4)cn1 [Compound 292]
Cc1ncc(-c2n[nH]c3cc4c(cc23)CN([C@@H]2CCCN(Cc3ccc(F)cc3F)C2)C(=O)N4)cn1 [Compound 293]
